Experiments:
human TYRO3 = molecular target: T1, human TYRO3 (Homo sapiens, UniProt Q06418); assay: HTRF KinEASE-TK biochemical potency assay, TYRO3; details: 1 nM TYRO3, 700 μM ATP, 800 nM TK Substrate-biotin
T1 construct: purchased Invitrogen
T1 sequence (Q06418 41-890): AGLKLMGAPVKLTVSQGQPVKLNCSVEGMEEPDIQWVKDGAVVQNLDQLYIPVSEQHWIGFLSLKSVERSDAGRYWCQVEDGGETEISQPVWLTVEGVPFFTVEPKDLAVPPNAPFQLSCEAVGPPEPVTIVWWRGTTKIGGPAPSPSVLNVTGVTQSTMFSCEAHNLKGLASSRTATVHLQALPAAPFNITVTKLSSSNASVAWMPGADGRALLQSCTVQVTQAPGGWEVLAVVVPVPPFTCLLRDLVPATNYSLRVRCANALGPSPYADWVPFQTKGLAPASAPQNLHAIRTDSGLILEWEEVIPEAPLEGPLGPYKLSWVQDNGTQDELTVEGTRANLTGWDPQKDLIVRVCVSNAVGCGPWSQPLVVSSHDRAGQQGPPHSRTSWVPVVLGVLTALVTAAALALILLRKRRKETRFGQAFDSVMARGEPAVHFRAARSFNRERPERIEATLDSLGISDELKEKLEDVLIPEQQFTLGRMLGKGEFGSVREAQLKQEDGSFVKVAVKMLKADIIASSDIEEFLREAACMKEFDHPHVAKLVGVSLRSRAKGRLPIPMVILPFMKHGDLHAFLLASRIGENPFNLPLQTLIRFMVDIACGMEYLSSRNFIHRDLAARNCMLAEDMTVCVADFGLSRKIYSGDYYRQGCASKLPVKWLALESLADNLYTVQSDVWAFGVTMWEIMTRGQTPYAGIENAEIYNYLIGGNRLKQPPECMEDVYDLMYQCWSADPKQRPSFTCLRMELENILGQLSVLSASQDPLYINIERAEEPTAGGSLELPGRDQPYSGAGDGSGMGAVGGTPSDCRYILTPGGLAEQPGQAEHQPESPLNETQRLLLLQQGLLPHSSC
Description: Purified recombinant human AXL, TYRO3 and MER proteins were purchased from Invitrogen™. 10 nM AXL, 2 nM TYRO3 or MER were incubated with varying concentrations of compounds in 50 mM HEPES, pH 7.4, 10 mM MgCl2, 0.01% BSA, 1 mM DTT and 2% DMSO in a total volume of 20 μl in a 384-well microplate (Corning™ #3640) at RT for 1 h. The AXL, TYRO3 and MER enzymatic reaction was initiated by transferring 10 μl of enzyme and compound mixture into 10 μl of 1.6 μM TK Substrate-biotin (HTRF® KinEASE-TK kit, Cisbio) and 1400 μM ATP pre-incubated in 50 mM HEPES, pH 7.4, 10 mM MgCl2, 0.01% BSA, 1 mM DTT in a 384-well microplate (Corning™ #3640) at RT, giving the final reaction conditions: 5 nM AXL, 1 nM TYRO3 or MER, 800 nM TK Substrate-biotin and 700 μM ATP in 50 mM HEPES, pH 7.4, 10 mM MgCl2, 0.01% BSA, 1 mM DTT and 1% DMSO with varying concentrations of compounds. Following 2 h incubation at RT, the AXL, TYRO3 and MER enzymatic reaction was stopped by transfer of 10 μl of reaction into 10 μl of detection mix (400 nM Streptavidin-XL665, 200-fold dilution TK Antibody-Cryptate and detection buffer, HTRF® KinEASE-TK kit, Cisbio) in a white 384-well microplate (Perkin Elmer, OptiPlate 384). After 1 h incubation at RT, the plate was put into a plate reader (Evision) to read at 665/620 nm (acceptor/donor) for HTRF. The value of the DMSO blank (MIN inhibition=100% activity) was used as a negative control. The positive control was established by adding 5 μl of enzyme and DMSO mixture into 10 μl of detection mix followed by addition of 5 μl of TK Substrate-biotin and ATP mixture (MAX inhibition=0% activity). To calculate the percent activity, Equation 1 was used. Ratio 665/620 is the value at a given compound concentration: […]

Axl = molecular target: T2, Axl (Homo sapiens, UniProt P30530); assay: HTRF KinEASE-TK biochemical potency assay, AXL; design: purchased Invitrogen; details: 5 nM AXL, 700 μM ATP, 800 nM TK Substrate-biotin
T2 sequence (P30530 26-894): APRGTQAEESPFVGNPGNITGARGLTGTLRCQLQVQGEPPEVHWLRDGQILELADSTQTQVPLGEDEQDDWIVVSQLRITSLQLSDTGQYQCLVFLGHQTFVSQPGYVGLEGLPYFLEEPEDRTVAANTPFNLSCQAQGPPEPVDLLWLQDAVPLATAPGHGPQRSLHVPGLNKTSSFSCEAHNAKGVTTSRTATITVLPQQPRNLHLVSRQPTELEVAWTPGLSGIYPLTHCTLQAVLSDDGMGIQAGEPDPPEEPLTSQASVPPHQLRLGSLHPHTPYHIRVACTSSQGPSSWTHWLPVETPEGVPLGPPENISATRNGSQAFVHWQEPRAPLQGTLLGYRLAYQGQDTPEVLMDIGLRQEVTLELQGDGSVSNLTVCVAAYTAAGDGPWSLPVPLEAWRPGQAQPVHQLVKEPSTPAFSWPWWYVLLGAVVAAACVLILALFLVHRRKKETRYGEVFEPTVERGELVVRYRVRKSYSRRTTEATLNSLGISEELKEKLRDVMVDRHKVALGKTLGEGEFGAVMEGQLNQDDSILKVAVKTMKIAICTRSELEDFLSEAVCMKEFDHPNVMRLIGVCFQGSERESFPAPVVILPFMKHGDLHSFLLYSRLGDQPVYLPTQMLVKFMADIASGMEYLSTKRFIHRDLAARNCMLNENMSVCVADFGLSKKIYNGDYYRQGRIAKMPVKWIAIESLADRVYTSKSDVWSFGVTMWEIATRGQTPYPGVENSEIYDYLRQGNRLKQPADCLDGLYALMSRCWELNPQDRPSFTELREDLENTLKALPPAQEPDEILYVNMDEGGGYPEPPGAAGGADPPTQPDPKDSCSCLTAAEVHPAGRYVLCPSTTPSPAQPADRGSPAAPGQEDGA
In short: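 Enzyme (final 5 nM AXL; 1 nM TYRO3 or MER) plus compound, 1 h RT → add biotinylated TK substrate (800 nM final) and ATP (700 μM final) → 2 h RT → stop into HTRF detection mix → read 665/620 nm. Activity normalised to DMSO and pre-stopped blanks.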

SMILES	IC50 (human TYRO3)	IC50 (Axl)
CC(C)S(=O)(=O)c1ccc(-c2n[nH]c3ncc(-c4ccc5c(c4)CC[C@@H](N4CCCC4)CC5)cc23)cc1 [Example 42, (S)-3-(4-(Isopropylsulfonyl)phenyl)-5-(7-(pyrrolidin-1-yl)-6,7,8,9-tetrahydro-5H-benzo[7]annulen-2-yl)-1H-pyrazolo[3,4-b]pyridine]	< 100 nM	< 100 nM
C[C@@H]1CCCN1C1(C)CCc2ccc(-c3cnc4[nH]nc(-c5ccc(S(=O)(=O)C6CCCC6)cc5)c4c3)cc2CC1 (stereo partly drawn) [Example 45, 3-(4-(Cyclopentylsulfonyl)phenyl)-5-(7-methyl-7-((R)-2-methylpyrrolidin-1-yl)-6,7,8,9-tetrahydro-5H-benzo[7]annulen-2-yl)-1H-pyrazolo[3,4-b]pyridine]	100 to 1000 nM	< 100 nM
C[C@@H]1CCCN1C1(C)CCc2ccc(-c3cnc4[nH]nc(-c5ccc(S(=O)(=O)C6CCC6)cc5)c4c3)cc2CC1 (stereo partly drawn) [Example 46, 3-(4-(Cyclobutylsulfonyl)phenyl)-5-(7-methyl-7-((R)-2-methylpyrrolidin-1-yl)-6,7,8,9-tetrahydro-5H-benzo[7]annulen-2-yl)-1H-pyrazolo[3,4-b]pyridine]	100 to 1000 nM	< 100 nM
Cc1cc(-c2n[nH]c3ncc(-c4ccc5c(c4)CCC(N4CCCC4)CC5)cc23)ccc1C(=O)N1CCNCC1 (stereo not shown) [Example 47, 1-(2-Methyl-4-{5-[7-(pyrrolidin-1-yl)-6,7,8,9-tetrahydro-5H-benzo[7]annulen-2-yl]-1H-pyrazolo[3,4-b]pyridin-3-yl}benzoyl)piperazine]	< 100 nM	< 100 nM
Cc1cc(-c2n[nH]c3ncc(-c4ccc5c(c4)CCN(C(=O)C(C)C)CC5)cc23)ccc1C(=O)N1CCNCC1 [Example 48, 2-Methyl-1-(7-{3-[3-methyl-4-(piperazine-1-carbonyl)phenyl]-1H-pyrazolo[3,4-b]pyridin-5-yl}-2,3,4,5-tetrahydro-1H-3-benzazepin-3-yl)propan-1-one]	100 to 1000 nM	< 100 nM
Cc1cc(-c2n[nH]c3ncc(-c4ccc5c(c4)CC[C@@H](N4CCCC4)CC5)cc23)cc(C)c1C(N)=O [Example 49, 2,6-Dimethyl-4-{5-[(7S)-7-(pyrrolidin-1-yl)-6,7,8,9-tetrahydro-5H-benzo[7]annulen-2-yl]-1H-pyrazolo[3,4-b]pyridin-3-yl}benzamide]	< 100 nM	< 100 nM
Cc1cc(-c2n[nH]c3ncc(-c4ccc5c(c4)CC[C@@H](N4CCCC4)CC5)cc23)cc(Cl)c1C(N)=O [Example 50, 2-Chloro-6-methyl-4-{5-[(7S)-7-(pyrrolidin-1-yl)-6,7,8,9-tetrahydro-5H-benzo[7]annulen-2-yl]-1H-pyrazolo[3,4-b]pyridin-3-yl}benzamide]	< 100 nM	< 100 nM
C[C@@H]1CCCN1C1(C)CCc2ccc(-c3cnc4[nH]nc(-c5ccc(C(N)=O)c(F)c5)c4c3)cc2CC1 (stereo partly drawn) [Example 52, 2-Fluoro-4-(5-(7-methyl-7-((R)-2-methylpyrrolidin-1-yl)-6,7,8,9-tetrahydro-5H-benzo[7]annulen-2-yl)-1H-pyrazolo[3,4-b]pyridin-3-yl)benzamide]	< 100 nM	< 100 nM
COc1cc(-c2n[nH]c3ncc(-c4ccc5c(c4)CCC(C)(N4CCC[C@H]4C)CC5)cc23)ccc1C(N)=O (stereo partly drawn) [Example 53, 2-Methoxy-4-(5-(7-methyl-7-((R)-2-methylpyrrolidin-1-yl)-6,7,8,9-tetrahydro-5H-benzo[7]annulen-2-yl)-1H-pyrazolo[3,4-b]pyridin-3-yl)benzamide]	< 100 nM	< 100 nM
C[C@@H]1CCCN1C1(C)CCc2ccc(-c3cnc4[nH]nc(-c5ccc(C(N)=O)cc5)c4c3)cc2CC1 (stereo partly drawn) [Example 54, 4-(5-(7-Methyl-7-((R)-2-methylpyrrolidin-1-yl)-6,7,8,9-tetrahydro-5H-benzo[7]annulen-2-yl)-1H-pyrazolo[3,4-b]pyridin-3-yl)benzamide]	< 100 nM	< 100 nM
Cc1cc(-c2n[nH]c3ncc(-c4ccc5c(c4)CC[C@@H](N4CCCC4)CC5)cc23)cc(C)c1C(=O)N1CCNCC1 [Example 55, 1-(2,6-Dimethyl-4-{5-[(7S)-7-(pyrrolidin-1-yl)-6,7,8,9-tetrahydro-5H-benzo[7]annulen-2-yl]-1H-pyrazolo[3,4-b]pyridin-3-yl}benzoyl)piperazine]	< 100 nM	< 100 nM
Cc1cc(-c2n[nH]c3ncc(-c4ccc5c(c4)CC[C@@H](N4CCCC4)CC5)cc23)cc(Cl)c1C(=O)N1CCNCC1 [Example 56, 1-(2-Chloro-6-methyl-4-{5-[(7S)-7-(pyrrolidin-1-yl)-6,7,8,9-tetrahydro-5H-benzo[7]annulen-2-yl]-1H-pyrazolo[3,4-b]pyridin-3-yl}benzoyl)piperazine]	< 100 nM	< 100 nM
C[C@@H]1CCCN1C1(C)CCc2ccc(-c3cnc4[nH]nc(-c5ccc(C(C)(C)O)c(Cl)c5)c4c3)cc2CC1 (stereo partly drawn) [Example 57, 2-[2-Chloro-4-(5-{7-methyl-7-[(2R)-2-methylpyrrolidin-1-yl]-6,7,8,9-tetrahydro-5H-benzo[7]annulen-2-yl}-1H-pyrazolo[3,4-b]pyridin-3-yl)phenyl]propan-2-ol]	100 to 1000 nM	< 100 nM
C[C@H]1CCCN1C1(C)CCc2ccc(-c3cnc4[nH]nc(-c5ccc(C(C)(C)O)c(Cl)c5)c4c3)cc2CC1 (stereo partly drawn) [Example 58, 2-[2-Chloro-4-(5-{7-methyl-7-[(2S)-2-methylpyrrolidin-1-yl]-6,7,8,9-tetrahydro-5H-benzo[7]annulen-2-yl}-1H-pyrazolo[3,4-b]pyridin-3-yl)phenyl]propan-2-ol]	100 to 1000 nM	< 100 nM
